Experiment [1] has as its system SARS-CoV-2 pseudoviruses. In kind it is cell-based.
In experiment [2] the test system is SARS-CoV-1 pseudoviruses. In kind it is cell-based.
Experiment [3] deals with SARS-CoV-2 pseudoviruses.
Experiment [4] relates to SARS-CoV-1 pseudoviruses.
The test system of experiment [5] is SARS-CoV-2 pseudoviruses. Format: cell-based. The source holds these as a separate data set.
The test system of experiment [6] is SARS-CoV-1 pseudoviruses. In kind it is cell-based. This is another data set of the same source.
The target of experiment [7] is SARS-CoV-2 spike S2 subunit (Severe acute respiratory syndrome coronavirus 2, UniProt P0DTC2).
In experiment [8] the test system is clade_AE envelope. In kind it is binding, HIV-1.
The subject of experiment [9] is HIV-1. Format: in vivo. The settings on record: animal model.
The subject of experiment [10] is HIVBal.01. The settings on record: read-out: HIVBal.01 IC50.
For experiment [11], the system named is HIVJRFL. The conditions noted are these: read-out: HIVJRFL IC50.
For experiment [12], the system named is Fully-infected HIVNL4.3. The conditions noted are these: read-out: Fully-infected HIVNL4.3 IC50.

*1 amine or outer side, *2 acyl side, *3 side chain or, on linkers, in order; H or OH if unused. Where a SMILES comes first, the peptide text is derived from it. Bridges are numbered along the chain shown (N, C = ends). [ ]: non-standard residue; d: D form. X1 = Cc1ccc(-c2ccc(-c3cn([C@H]4C[C@@H](C(=O)[*:2])N([*:1])C4)nn3)cc2)s1

With GRFT: lectin Griffithsin, SEQ ID NO:2, the “inhibition of SARS-CoV-2 pseudovirus infection” value in experiment [1] is listed as “reduced inhibition of infection”. Besides, the “inhibition of SARS-CoV-1 pseudovirus infection” value in experiment [2] was “reduced inhibition of infection”. Further, the “virolysis of SARS-CoV-2 pseudoviruses” value in experiment [3] was “does not causes significant virolysis”. Besides, the “virolysis of SARS-CoV-1 pseudoviruses” value in [4] was “does not causes significant virolysis”. Further, the “irreversible inactivation of SARS-CoV-2” value in [5] was “partial irreversible inactivation”. In addition, in [6], the “irreversible inactivation of SARS-CoV-1” value is “partial irreversible inactivation”. Also, in [7], the “stoichiometry of binding, S2 versus S1” value was “higher for the S2 subunit as compared to the S1 subunit”.
`CC[C@H](C)[C@@H]1NC(=O)[C@H](CC(N)=O)NC(=O)[C@@H](N)CC(=O)NCCCC[C@@H](C(N)=O)NC(=O)[C@H](Cc2c[nH]c3ccccc23)NC(=O)[C@@H]2C[C@H](n3cc(-c4ccc(-c5ccc(C)s5)cc4)nn3)CN2C1=O` [AAR029N2, (3S,6S,14S,17S,20S,24S,25aS)-3-((1H-indol-3-yl)methyl)-14-amino-17-(2-amino-2-oxoethyl)-20-((S)-sec-butyl)-24-(4-(4-(5-methylthiophen-2-yl)phenyl)-1H-1,2,3-triazol-1-yl)-1,4,12,15,18,21-hexaoxotetracosahydro-1H-pyrrolo[2,1-f][1,4,7,10,13,18]hexaazacyclotricosine-6-carboxamide] (H-DNI[X1]WK-NH2; lactam 1-6): the “binding to clade_AE envelope” value in [8] is recorded as “binds clade_AE envelope”. Also, the “HIV-1 viral load normalized to Hu CD4+ T cell counts” value in experiment [9] is “significant efficacy in an animal model”. Moreover, the IC50 was approximately 100 nM in [10], approximately 112 nM in experiment [11] and approximately 180 nM in experiment [12].

As a reminder, the IC50 is the midpoint of a concentration-inhibition curve.

Source of the values: patent US20230355708A1 (priority 2020, published 2023).
